One data set deals with WT HIV-1. The class given is cell-based. Particulars: for antiviral activity in the single replication cycle assay: concentrations up to 10 μM, data not shown.
The subject of data set [1] is AZT-resistant HIV (D67N/K70R/T215F/K219Q). The data set can be described thus: Single replication cycle antiviral assay, AZT-resistant virus. It counts as cell-based. Conditions: read-out: EC50 AZTr HIV.
Data set [2] deals with NNRTI-resistant HIV (L100I/K103N). The class given is cell-based. Conditions: read-out: EC50 NNRTIr HIV.
Data set [3] has as its target AZT-resistant HIV-1 RT (AZTr) D67N/K70R/T215F/K219Q (Human immunodeficiency virus type 1 group M subtype B, UniProt P03366, D666N/K669R/K818Q/T814F). The class given is biochemical. Particulars: ATP-mediated excision by AZTr RT; chain-terminated primer.
The test system of another data set is HIV-1 IIIB. Put plainly: microbe, parasite or virus in culture. The class given is cell-based. Particulars: Human immunodeficiency virus 1, IIIB, CEM-SS, read-out: Inhibition % @ 10 μM.
The nature of data set [4]: Compound cytotoxicity / cell viability in the cytoprotection assay. It counts as cell-based. Particulars: human, CEM-SS cells.

Entries after “also recorded” stand apart in the source; their conditions may differ.

Consider “3’-Azidothymidine [AZT, reference compound]”, for which the half-maximal effective concentration (EC50) (in general, the concentration needed to bring the measured effect to its halfway point) in the data set with WT HIV-1 (read-out: Single Replication Cycle Assay EC50, WT HIV, WT HIV-1, P4R5 cells) was 140 nM; in data set [1] it was 7900 nM; in data set [2] it was 120 nM. In addition, in data set [3], the “rate of nucleotide excision of the terminal nucleotide” value amounted to 0.024 min⁻¹.

`Cc1cn([C@H]2C[C@H](n3nncc3COc3cccc4ccccc34)[C@@H](CO)O2)c(=O)[nH]c1=O` [Compound 9c, 1-((2R,4S,5S)-5-(Hydroxymethyl)-4-(5-((naphthalen-1-yloxy)methyl)-1H-1,2,3-triazol-1-yl)tetrahydrofuran-2-yl)-5-methylpyrimidine-2,4(1H,3H)-dione]: the “antiviral activity in the single replication cycle assay” value (“antiviral activity” below) with WT HIV-1 is “none showed significant antiviral activity”.

As for `COc1ccc2cc(OCc3cnnn3[C@H]3C[C@H](n4cc(C)c(=O)[nH]c4=O)O[C@@H]3CO)ccc2c1` [Compound 9e, 1-((2R,4S,5S)-5-(Hydroxymethyl)-4-(5-(((6-methoxynaphthalen-2-yl)oxy)methyl)-1H-1,2,3-triazol-1-yl)tetrahydrofuran-2-yl)-5-methylpyrimidine-2,4(1H,3H)-dione], the “antiviral activity” value with WT HIV-1 is on record as “none showed significant antiviral activity”.

As to `Cc1cn([C@H]2C[C@H](n3nncc3-c3ccc(Oc4ccccc4)cc3)[C@@H](CO)O2)c(=O)[nH]c1=O` [Compound 18i, 1-((2R,4S,5S)-5-(Hydroxymethyl)-4-(5-(4-phenoxyphenyl)-1H-1,2,3-triazol-1-yl)tetrahydrofuran-2-yl)-5-methylpyrimidine-2,4(1H,3H)-dione], the “antiviral activity” value in the data set on WT HIV-1 is given as “none showed significant antiviral activity”.

Consider `Cc1cn([C@H]2C[C@H](n3nncc3-c3ccc(-c4ccccc4)cc3)[C@@H](CO)O2)c(=O)[nH]c1=O` [Compound 18j, 1-((2R,4S,5S)-4-(5-([1,1’-Biphenyl]-4-yl)-1H-1,2,3-triazol-1-yl)-5-(hydroxymethyl)tetrahydrofuran-2-yl)-5-methylpyrimidine-2,4(1H,3H)-dione], for which the “antiviral activity” value in the data set with WT HIV-1 was “none showed significant antiviral activity”.

For `Cc1cn([C@H]2C[C@H](n3nncc3C3CCCCC3)[C@@H](CO)O2)c(=O)[nH]c1=O` [Compound 18l, 1-((2R,4S,5S)-4-(5-Cyclohexyl-1H-1,2,3-triazol-1-yl)-5-(hydroxymethyl)tetrahydrofuran-2-yl)-5-methylpyrimidine-2,4(1H,3H)-dione], the inhibition (as a rule, the relative decrease from the control value, in per cent) at 10 µM with HIV-1 IIIB amounted to 100%. In addition, the viability (in general, a per cent measure of how many cells are alive, often set against a control) at 6 days, 10 µM in data set [4] is 100%. Besides, in the data set on WT HIV-1, the “antiviral activity” value was “did not produce significant antiviral activity; also recorded: none showed significant antiviral activity”.

For the compound `Cc1cn([C@H]2C[C@H](n3nncc3-c3ccc(Cl)c(Cl)c3)[C@@H](CO)O2)c(=O)[nH]c1=O` [Compound 18n, 1-((2R,4S,5S)-4-(5-(3,4-Dichlorophenyl)-1H-1,2,3-triazol-1-yl)-5-(hydroxymethyl)tetrahydrofuran-2-yl)-5-methylpyrimidine-2,4(1H,3H)-dione], in the data set with WT HIV-1, the “antiviral activity” value is “none showed significant antiviral activity”.

Take `Cc1cn([C@H]2C[C@H](n3nncc3-c3cccc4ccccc34)[C@@H](COP(=O)([O-])OP(=O)([O-])OP(=O)([O-])[O-])O2)c(=O)[nH]c1=O.[Na+].[Na+].[Na+].[Na+]` [Compound 21a]: the “rate of nucleotide excision of the terminal nucleotide” value in data set [3] came to 0.0126 min⁻¹.

Values taken from paper PMC4027054 (Journal of medicinal chemistry, 2013).
